Patent US20250360166A1, “Cisplatin particles and uses thereof” (CRITITECH, INC., priority 2021, published 2025)

Assays:
H69 tumor cells = test: SCP-Cisplatin pilot study, subcutaneous H69 tumor in NCr nu/nu mice, single intra-tumoral injection; type: in vivo
Method: 55 CR female NCr nu/nu mice 8-12 weeks of age at start date were injected subcutaneously in the flank with 1×10^7 H69 tumor cells in 50% Matrigel; cell injection volume was 0.1 mL/mouse. A pair match was performed when tumors reach an average size of 100-150 mm^3, after which treatment was initiated as detailed in Table 2.
Tumor cells implanted on Day 0 and treatments initiated on Day 18 (Mean TV=126 mm^3). There were 5 treatment groups (n=5/group); all receiving IT injections =25 uL; 27G needle. The IT vehicle group was administered ethanol/glycerin/water. Animals were sacrificed at humane endpoint of TV=2000 mm^3 or Study Day 51.

[1] = Specific surface area by BET sorptometry; type: physicochemical
Source text: The BET specific surface area test procedure is a compendial method included in both the United States Pharmaceopeia and the European Pharmaceopeia.

[2] = Bulk density (10 mL graduated cylinder, modified USP <616> Method I); type: physicochemical; conditions: not tapped
Method: As used herein, the bulk density of the cisplatin particles is the mass of the totality of particles in the composition divided by the total volume they occupy when poured into a graduated cylinder and not tapped. The total volume includes particle volume, inter-particle void volume, and internal pore volume.
Bulk density analyses were conducted using a 10 mL graduated cylinder due to low sample volume.

[3] = Particle size distribution by laser diffraction (Malvern Mastersizer 3000, Hydro MV); type: physicochemical; conditions: dispersed in ethyl acetate
Method: Particle size analyses were conducted on a Malvern Mastersizer™ 3000 using the Hydro MV dispersion unit. A non-validated general PSD method/dispersant method was used to analyze the cisplatin samples. The sample preparation procedure performed was as follows: Weigh 10 to 20 mg of cisplatin into a 30-mL vial, add 20 mL of ethyl acetate. Disperse the sample by vortexing then sonicating the suspension in an ultrasonic bath for 1 minute. Then transfer the sample suspension to the Malvern Hydro MV dispersion unit to obtain obscuration between 5 and 15%.

| SMILES | tumor volume of surviving animals on Day 51 (H69 tumor cells; 25 μg/animal intra-tumoral qd × 1) | animals survived on Day 51 (H69 tumor cells; 25 μg/animal intra-tumoral qd × 1, n=5, endpoint TV=2000 mm^3 or Day 51) | Surface Area [1] [m^2/g] | Bulk Density [2] [g/mL] | PSD-Master sizer Dv10 [3] [μm] | PSD-Master sizer Dv50 [3] [μm] | PSD-Master sizer Dv90 [3] [μm] |
| --- | --- | --- | --- | --- | --- | --- | --- |
| N.N.[Cl][Pt][Cl] [Cisplatin] | increasing tumor volume | 3 of 5 |  |  |  |  |  |
| N.N.[Cl][Pt][Cl] [Raw, Cisplatin] |  |  | 2.44 | 1.01 | 1.72 | 10.9 | 25.9 |
